Positions count from the first letter of the chain named. Blank lines part the entries; values can stand above or below the compound they belong to.
Columns and labels:
[1] = target: T1, Notum (Homo sapiens, UniProt Q6P988, C330S); assay: Notum OPTS activity assay (cell-free biochemical)
T1 construct: comprising amino acids S81–T451 with a C330S mutation; inferred from HisTrap purification and imidazole elution; made in house
T1 sequence (Q6P988 81-451 C330S): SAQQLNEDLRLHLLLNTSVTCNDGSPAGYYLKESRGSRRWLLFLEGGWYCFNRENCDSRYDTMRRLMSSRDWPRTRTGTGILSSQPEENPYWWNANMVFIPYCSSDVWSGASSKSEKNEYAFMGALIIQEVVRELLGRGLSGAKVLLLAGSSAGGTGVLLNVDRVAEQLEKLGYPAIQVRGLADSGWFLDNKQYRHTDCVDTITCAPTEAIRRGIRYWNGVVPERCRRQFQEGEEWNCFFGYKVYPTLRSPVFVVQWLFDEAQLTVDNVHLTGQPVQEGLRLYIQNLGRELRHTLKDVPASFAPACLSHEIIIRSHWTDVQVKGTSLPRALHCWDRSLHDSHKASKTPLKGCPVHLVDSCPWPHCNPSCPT
Excerpt: Notum is a druggable target for Wnt signaling modulation.[23] We have previously determined a number of structures of Notum inhibitor complexes.[21],[22],[24],[25],[27],[28] All of these inhibitors bind noncovalently at the Notum enzyme catalytic pocket, where the natural substrate PAM binds. For searching covalent inhibitors, we used this noncovalent inhibitor binding information to limit compound docking into the enzyme active site. A virtual library of approximately 1.5 million compounds (ChemDiv) was filtered to generate 534,804 candidates for docking with a Notum structure (PDB code 6T2K) by Schrödinger Glide SP[37],[38] (Experimental Section). Resulting 1330 compounds with score −9 or better were subject to manual inspection and availability check. Finally, 952 compounds were purchased and experimentally screened using a cell-free trisodium 8-octanoyloxypyrene-1,3,6-trisulfonate (OPTS) biochemical assay.[22] […] The soaked crystals were harvested, and diffraction data were collected at the Diamond Light Source. The structures were determined by molecular replacement and refined with Refmac to screen for difference map peaks (Experimental Section). Chemical structures were then fitted into the difference maps with the aim of identifying covalent binders. Methyl 4-indolinyl-4-oxobutanoate (1) was identified as the only covalent binder to emerge from the screen (Figure 1). The 1 soaked crystal diffracted to 1.2 Å resolution with a P2_12_12_1 space group containing one enzyme-inhibitor complex in an asymmetric unit (for data collection and refinement statistics, see Supporting Information, Table S1). The overall structure maintained the characteristic apo Notum fold (Figure 1A), with a α/β hydrolase core domain (β1-8 strands and αB, C, and F helices) and a moveable lid domain (αA, D, and E helices). 1 is composed of an indole ring linked to an oxo-butyric acid methyl ester (Figure 1B). The methyl ester-hydrolyzed 1 (with PDB identifier RW8) is an excellent fit in the strong electron density that extends from the nucleophile residue S232 (Figure 1C). The electron density for the RW8 is of equally high quality to that of the surrounding Notum amino acids. […] The movable lid domain sits between the “open” (PDB code 4UYU) and “closed” (PDB code 4UZ1) conformations with obvious movements of the flexible β6_αD loop (Figure 1D). When superimposed with the natural substrate, PAM-bound, structure (PDB code 4UZQ), the RW8 overlaps with the PAM within the enzyme pocket (Figure 1E). The indole ring is located toward the bottom of the pocket, while the butyric acid head group is well-aligned with the PAM head (Figure 1E). Residues that form the base of the pocket (P287–I291) are positioned closer to the RW8 indole ring than in the PAM-bound structure. For example, P287 Cα has moved 1.7 Å toward the pocket center (Figure 1E) to optimize interactions with the RW8 indole ring, which extends less far into the pocket than PAM.
The Notum inhibitory potencies of these compounds were assessed by determining OPTS IC50 values, which can be used to compare the relative activities of covalent inhibitors under carefully regulated conditions.[43] […] When a phenyl ring is added to produce benzyl ester, 5, the IC50 is also slightly better than 1.
The OPTS activity assay has been described in previous reports.[24],[25] Briefly, the test compounds, the reporter substrate OPTS (Sigma), and the recombinant Notum protein were dispensed into 384-well plates (Greiner) using a Labcyte Echo 550 acoustic liquid handler and incubated 40 min in room temperature. The endpoint fluorescence was measured on a PheraSTAR FSX microplate reader with an excitation wavelength of 485 nm and an emission wavelength of 520 nm. The compound IC50 values were calculated from curves using a 4PL fit.

[2] = target: T1, Notum; assay: Cell-based TCF/LEF reporter (luciferase) assay, HEK293 STF cells with exogenous Wnt3a and Notum; conditions: HEK293 TCF/LEF luciferase reporter cell line
Description: Selected compounds were further investigated for inhibition of Notum activity in a Wnt/β-catenin signaling pathway TCF/LEF reporter (luciferase) HEK293 cell line with exogenous Wnt3a and Notum.[22],[25]
The cellular Wnt signaling functional assay has been described in previous reports.[24],[25] Briefly, the reporter cell plate containing stable HEK293 STF cells[53] (1 × 10^4 cells per well in 384-well microplates) carrying the Super Top Flash firefly luciferase reporter was prepared (overnight at 37 °C). Compounds and Notum protein were mixed for 10 min before the recombinant Wnt-3A was added and incubated for 1 h at room temperature. Then, the mixture from the compound plates was added to reporter cell plates and incubation overnight at 37 °C. For luciferase assay, steady-glo luciferase assay buffer (20 μL, Promega) was applied to the cell plates using the CyBio, the luminescence was measured on a PHERAstar FSXmicroplate reader with an excitation wavelength of 458 nm and an emission wavelength of 520 nm.

[3] = target: T2, Notum (glycosylated) (Homo sapiens, UniProt Q6P988, C330S); assay: Thermal shift assay (differential scanning fluorimetry); assay type: binding; conditions: for ΔTm at 1000 µM: compound 1 mM, read-out: max ΔTm; for ΔTm: compound ∼30 μM (31 μM in Figure 3)
T2 construct: comprising amino acids S81–T451 with a C330S mutation; inferred from HisTrap purification and imidazole elution; made in house
T2 sequence (Q6P988 81-451 C330S): T1 sequence (Q6P988 81-451 C330S)
Description: To further characterize Notum 1 binding, especially regarding the importance of the methyl ester warhead of 1, we used a thermal shift assay (also known as differential scanning fluorimetry) to compare the binding properties of 1 with its methyl-less acid form, 4-indolinyl-4-oxobutanoic acid (2). The thermal shift assay is a reliable label-free strategy to detect small molecule–protein binding by measuring protein melting temperature (Tm) changes.[39]−[41] A ΔTm of 2 °C or more indicates a small molecule binding to the target protein.[42] Notum was incubated with each compound in the presence of a fluorescent indicator, […], and the melting curves were recorded. 1 and 2, despite only differing by a single methyl group, yield highly different Notum melting curves (Figure 3). […] To establish the dose-dependent thermal shift responses, we performed a twofold serial dilution of the compounds.
Thermal shift assays were carried out in a semiskirted 96-well PCR plate (4-Titude). Each well contains 3 μg of glycosylated Notum protein, 3× SYPRO Orange dye (Thermo Fisher Scientific), and compounds at various concentrations and adjusted to a final volume of 50 μL with assay buffer (10 mM Hepes, pH7.4, 150 mM NaCl, and 2% DMSO). The samples were heated in an Mx3005p qPCR machine (Stratagene, Agilent Technologies) from room temperature at a rate of 1 °C/min for 74 cycles. Fluorescence changes were monitored with excitation and emission wavelengths at 492 and 610 nm, respectively.

[4] = target: T3, Notum (deglycosylated) (Homo sapiens, UniProt Q6P988, C330S); assay: ESI-QTOF intact protein mass spectrometry detection of covalent binding; conditions: 10 mM Hepes pH 7.4, 150 mM NaCl, room temperature, 1 h
T3 construct: comprising amino acids S81–T451 with a C330S mutation; inferred from HisTrap purification and imidazole elution; made in house
T3 sequence (Q6P988 81-451 C330S): T1 sequence (Q6P988 81-451 C330S)
Description: (§1) However, the crystals were grown and soaked under low pH (pH 4.2) and high salt (1.5 M ammonium sulphate) conditions. To measure covalent bonding and stability under near physiological conditions, we incubated Notum (deglycosylated) protein with 1 in buffer containing 10 mM Hepes, pH 7.4, 150 mM NaCl at room temperature for 1 h. The mixture was then subjected to ultrahigh-performance liquid chromatography (uHPLC) reversed-phase chromatography separation, followed by electrospray ionization quadrupole time-of-flight (ESI-QTOF) mass spectrometry analysis. […] There are some other minor peaks that may reflect incomplete removal of glycans. […] The calculated MW of 1 is 233.27 Da, while its methyl ester-hydrolyzed form (RW8) is 201.22 Da. […] To establish whether the covalent link is dependent on the nucleophile serine residue, we further used the Notum S232A mutant as a control, observing a mass of 44103.32 Da (Figure 2C). The decrease of 15.79 Da compared to the wild type is consistent with the expected serine to alanine mutation.
(§2) Reversed-phase chromatography was performed in-line prior to mass spectrometry using an Agilent 1290 uHPLC system (Agilent Technologies inc. USA). […] Protein intact mass was determined using a 6530 ESI-QTOF mass spectrometer (Agilent Technologies Inc. USA). […]

[5] = target: T4, Notum S232A mutant (Homo sapiens, UniProt Q6P988, C330S/S232A); assay: ESI-QTOF intact protein mass spectrometry detection of covalent binding, mutant control; conditions: 10 mM Hepes pH 7.4, 150 mM NaCl, room temperature, 1 h
T4 construct: comprising amino acids S81–T451 with a C330S mutation; inferred from HisTrap purification and imidazole elution; made in house
T4 sequence (Q6P988 81-451 S232A/C330S): T1 sequence (Q6P988 81-451 C330S) with S152A
Description: as §1, §2

[6] = mean ± s.d. (n = 4), 40 min incubation at room temperature

Structure (SMILES): CC(C)OC(=O)CCC(=O)N1CCc2ccccc21 [Compound 6]
IC50 [1, 6]: 4.3 ± 0.4 µM

Structure (SMILES): CC(C)(C)OC(=O)CCC(=O)N1CCc2ccccc21 [Compound 7]
inhibition at 10 µM ([1]; @ 10 μM, read-out: Notum OPTS % inhibition (% I)): < 10% | Notum OPTS IC50 [1, 6]: inactive ^b

Structure (SMILES): O=C(O)CCC(=O)N1CCc2ccccc21 [Compound 2, 4-indolinyl-4-oxobutanoic acid]
IC50 [1, 6]: 3.1 ± 0.92 µM | ΔTm at 1000 µM [3]: 2.5 °C | ΔTm [3]: 1 °C

Structure (SMILES): O=C(CCC(=O)N1CCc2ccccc21)OCc1ccccc1 [Compound 5]
IC50 [1, 6]: 0.064 ± 0.014 µM

More lines, in order of falling IC50 [1, 6], values ahead:

IC50 [1, 6]: 0.19 ± 0.045 µM | EC50 [2]: 0.3 ± 0.06 µM
Structure (SMILES): CCOC(=O)CCC(=O)N1CCc2ccccc21 [Compound 3]

IC50 [1, 6]: 0.093 ± 0.02 µM | EC50 [2]: 0.53 ± 0.047 µM | ΔTm at 8 µM ([3]; compound 8 μM, start of significant changes): 2 °C | ΔTm at 1000 µM [3]: 10 °C | ΔTm [3]: 5 °C
Structure (SMILES): COC(=O)CCC(=O)N1CCc2ccccc21 [Compound 1, Methyl 4-indolinyl-4-oxobutanoate]
mass increase of treated Notum compared to untreated Notum [4]: 201.25 Da | mass change of treated Notum S232A mutant [5]: no mass change

IC50 [1, 6]: 0.012 ± 0.0028 µM
Structure (SMILES): O=C(CCC(=O)N1CCc2ccccc21)OCC(F)F [Compound 4]

Reference: publication PMC8365597, “Structural Insights into Notum Covalent Inhibition” (Journal of Medicinal Chemistry, 2021)
